Measurements published in patent US10689377B2 (Mirati Therapeutics, Inc., priority 2017, dated 2020).
pIC50: −log10 of the molar value. Like-named read-outs stand apart in the source and are kept apart here.

What was measured:
[1] = In vitro stability in human whole blood; format: in vitro ADME; conditions: male, whole blood diluted to 50% with PBS, 37° C.
From the text: Materials: The following reagents were used as received: acetonitrile (HPLC grade, Burdick & Jackson, Madison, Wis.), phosphate buffered saline (PBS), pH 7.4 (Sigma-Aldrich, Co., St. Louis, Mo.), water (HPLC grade, JT Baker, Phillipsburg, N.J.), DMSO (EM Science, Merck KGaA, Darmstadt, Germany) and isopropanol (IPA, reagent grade, EMD Chemicals, Gibbstown, N.J.). Propantheline and esmolol (Sigma-Aldrich) were used as the positive control compounds in the assay. Diazepam (Sigma-Aldrich) was used as an internal standard for quantitation. Human whole blood was obtained from BioIVT (Westbury, N.Y.) […]. All other reagents and solvents were of the highest analytical grade supplied by Sigma (St. Louis, Mo.) and were used as received.
Blood Incubations: The in vitro stability of representative KRas G12C inhibitor compounds of the present invention in the presence whole blood was conducted in the following manner. Esmolol or propantheline, which are known to undergo ester hydrolysis by esterases in blood and plasma, were used as the positive controls in the assays. A 10 mM stock solution of propantheline, esmolol, or a compound of the present invention in DMSO was diluted to 500 μM with DMSO. Aliquots of whole blood (600 μL), in triplicate, were placed in the appropriate wells of a polypropylene 96-deep well plate (Axygen Scientific, Union City, Calif.). The blood was diluted to 50% using PBS, pH 7.4 (600 μL). The diluted blood was pre-incubated for 15 minutes at 37° C. Each well was dosed with 12 μL of the 500 μM DMSO stock simultaneously for a final test concentration of 5 μM. The plates were mixed at 600 rpm for 10 seconds on a plate shaker (IKA MTS 2/4 Digital Microtiter Shaker, VWR). Aliquots of 100 μL from each well of whole blood were transferred to three separate 96-deep well plates labeled 0, 60, or 240 minutes. At the end of each designated time point, the red blood cells were lysed with 100 μL of water, mixed at 600 rpm for one minute, and stopped with 800 μL of acetonitrile containing IS (0.625 μM diazepam). The plates were mixed on the plate shaker at 600 rpm for one minute and spun in a centrifuge at 2095×g for 7 minutes at room temperature using an Allegra benchtop centrifuge (Beckman Coulter, Fullerton, Calif.). Supernatant (100 μL) was transferred to a shallow 96-well plate (Costar) using a liquid sample handling system (Apricot, Perkin-Elmer, Boston, Mass.). The addition of 100 μL of water was added to each sample of supernatant for a final volume of 200 μL. The plates were sealed and the contents of each well were analyzed by LC-MS/MS.
Analytical quantitation: The LC-MS/MS system was comprised of an HTS-PAL autosampler (Leap Technologies, Carrboro, N.C.), an HP1200 HPLC (Agilent, Palo Alto, Calif.), and an API4000 triple quadrupole mass spectrometer (PE Sciex, a division of Applied Biosystems, Foster City, Calif.). […] The total run time, including re-equilibration, for a single injection was 2 minutes. Mass spectrometric detection of the analytes was accomplished using the ESI ionization mode. Ion current was optimized during infusion of a stock solution of propantheline, esmolol, or the representative test compound. Analyte responses, including the IS were measured by multiple reaction monitoring (MRM) of transitions unique to each compound.
Calculations: Data were acquired and peak areas were calculated for test compounds and the internal standard using Analyst 1.6.2 software (Sciex). The mean peak area ratios were calculated by averaging the peak area ratios (n=3) of each test compound and the IS for each sample.
Peak area tables were exported to BioAssay Enterprise (CambridgeSoft, Cambridge, Mass.), where the average analyte-to-internal standard peak area ratios were used to calculate percent remaining (% REM) and half-life (t1/2). Percent remaining (f) was calculated by determining the ratio of the peak area ratio at each time point to the peak area ratio of the time-zero samples. […]

KRas G12C [2] = target: KRas G12C (Homo sapiens, UniProt P01116, G12C); experiment: Cellular inhibition of KRas G12C measured by Phospho-ERK in NCI-H358 cells; format: cell-based; conditions: pERK(Thr202/Tyr204) normalized with GAPDH, NCI-H358 cells, 3 hours; read-out: IC50
Method in brief: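 NCI-H358 cells treated 3 h with compound (0.5% DMSO final), then fixed and methanol-permeabilised. In-cell immunofluorescence measured pERK(Thr202/Tyr204) normalised to GAPDH as percent of DMSO control. IC50 from a 4-parameter dose-response fit.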

KRas G12C [3] = target: KRas G12C (Homo sapiens, UniProt P01116, C118S/C51S/C80L/G12C); experiment: KRas G12C Modification Assay (LCMS detection of covalent adduct); format: binding; conditions: normalized percent of control; 5 μM concentration for 3 hours
Method in brief: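 Intact protein analysed by LC/MS with deconvolution; unmodified protein signal normalized to no-compound control and reported as percent of control (POC).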

[4] = pH 7.4, human whole blood diluted to 50% with PBS, 5 μM, 240-minute incubation, read-out: Compound Half-life

Row | SMILES | half-life at 5 µM [1, 4] | pIC50 (KRas G12C [2]) | POC (KRas G12C [3]) | half-life at 5 µM ([1]; pH 7.4, human whole blood, positive control, read-out: half life)
1 | CN(C)C/C=C/C(=O)N1CCN(c2nc(OC[C@@H]3CCCN3C)nc3c2CCN(c2cccc4ccccc24)C3)C[C@@H]1CC#N [Example 235, 2-((S)-1-((E)-4-(dimethylamino)but-2-enoyl)-4-(2-(((S)-1-methylpyrrolidin-2-yl)methoxy)-7-(naphthalen-1-yl)-5,6,7,8-tetrahydropyrido[3,4-d]pyrimidin-4-yl)piperazin-2-yl)acetonitrile] | > 33.3 h | 6.00 to 10.00 |  | 
2 | CN1CCC[C@H]1COc1nc2c(c(N3CCN(C(=O)/C=C/CN4CCCCC4)[C@@H](CC#N)C3)n1)CCN(c1cccc3ccccc13)C2 [Example 236, 2-((S)-4-(2-(((S)-1-methylpyrrolidin-2-yl)methoxy)-7-(naphthalen-1-yl)-5,6,7,8-tetrahydropyrido[3,4-d]pyrimidin-4-yl)-1-(E-4-(piperidin-1-yl)but-2-enoyl)piperazin-2-yl)acetonitrile] | 3.33 to 16.7 h | 6.00 to 10.00 |  | 
3 | C=CC(=O)N1CCN(c2nc(OC[C@@H]3CCCN3C)nc3c2CCN(c2cccc4cccc(Cl)c24)C3)C[C@@H]1CC#N [Example 331, 2-[(2S)-4-[7-(8-chloro-1-naphthyl)-2-[[(2S)-1-methylpyrrolidin-2-yl]methoxy]-6,8-dihydro-5H-pyrido[3,4-d]pyrimidin-4-yl]-1-prop-2-enoyl-piperazin-2-yl]acetonitrile] | 3.33 to 16.7 h |  |  | 
4 | CN1CCC[C@H]1COc1nc2c(c(N3CCN(C(=O)/C=C/CN4CCOCC4)[C@@H](CC#N)C3)n1)CCN(c1cccc3cccc(Cl)c13)C2 [Example 367, 2-[(2S)-4-[7-(8-chloro-1-naphthyl)-2-[[(2S)-1-methylpyrrolidin-2-yl]methoxy]-6,8-dihydro-5H-pyrido[3,4-d]pyrimidin-4-yl]-1-[(E)-4-morpholinobut-2-enoyl]piperazin-2-yl]acetonitrile] | 16.7 to 33.3 h | 6.00 to 10.00 |  | 
5 | C/C=C/C(=O)N1CCN(c2nc(OC[C@@H]3CCCN3C)nc3c2CCN(c2cccc4cccc(C)c24)C3)C[C@@H]1CC#N [Example 372] | > 33.3 h | 6.00 to 10.00 |  | 
6 | Cc1cccc2cccc(N3CCc4c(nc(OC[C@@H]5CCCN5C)nc4N4CCN(C(=O)/C=C/CN5CC(F)C5)[C@@H](CC#N)C4)C3)c12 [Example 515, 2-[(2S)-1-[(E)-4-(3-fluoroazetidin-1-yl)but-2-enoyl]-4-[7-(8-methyl-1-naphthyl)-2-[[(2S)-1-methylpyrrolidin-2-yl]methoxy]-6,8-dihydro-5H-pyrido[3,4-d]pyrimidin-4-yl]piperazin-2-yl]acetonitrile] | > 33.3 h |  |  | 
7 | COC/C=C/C(=O)N1CCN(c2nc(OC[C@H]3C[C@@H](OC)CN3C)nc3c2CCN(c2cccc4cccc(C)c24)C3)C[C@@H]1CC#N [Example 552, 2-[(2S)-1-[(E)-4-methoxybut-2-enoyl]-4-[2-[[(2R,4R)-4-methoxy-1-methyl-pyrrolidin-2-yl]methoxy]-7-(8-methyl-1-naphthyl)-6,8-dihydro-5H-pyrido[3,4-d]pyrimidin-4-yl]piperazin-2-yl]acetonitrile] | > 33.3 h |  |  | 
8 | C=C(F)C(=O)N1CCN(c2nc(SC[C@@H]3CCCN3C)nc3c2CCN(c2cccc4cccc(C)c24)C3)C[C@@H]1CC#N [Example 599, 2-((S)-1-(2-Fluoroacryloyl)-4-(7-(8-methylnaphthalen-1-yl)-2-((((S)-1-methylpyrrolidin-2-yl)methyl)thio)-5,6,7,8-tetrahydropyrido [3,4-d]pyrimidin-4-yl)piperazin-2-yl)acetonitrile] |  | < 6.00 | C (“C”>50% POC) | 
9 | C=C(F)C(=O)N1CCN(c2nc(OC[C@@H]3CCCN3C)nc3c2CCN(c2cncc(Cl)c2C(F)(F)F)C3)C[C@@H]1CC#N [Example 600, 2-((S)-4-(7-(5-Chloro-4-(trifluoromethyl)pyridin-3-yl)-2-(((S)-1-methylpyrrolidin-2-yl)methoxy)-5,6,7,8-tetrahydropyrido[3,4-d]pyrimidin-4-yl)-1-(2-fluoroacryloyl)piperazin-2-yl)acetonitrile] |  | 6.00 to 10.00 | C (“C”>50% POC) | 
10 | CC(C)[N+](C)(CCOC(=O)C1c2ccccc2Oc2ccccc21)C(C)C [Propantheline, reference compound] | ≤ 3.33 h |  |  | 1.63 h

Results, then the compound that gave them:

Row | half-life at 5 µM [1, 4] | pIC50 (KRas G12C [2]) | POC (KRas G12C [3]) | half-life at 5 µM ([1]; pH 7.4, human whole blood, positive control, read-out: half life) | SMILES
11 | 3.33 to 16.7 h | 6.00 to 10.00 |  |  | C=CC(=O)N1CCN(c2nc(OC[C@@H]3CCCN3C)nc3c2CCN(c2cccc4cccc(C)c24)C3)C[C@@H]1CC#N [Example 359, 2-[(2S)-4-[7-(8-methyl-1-naphthyl)-2-[[(2S)-1-methylpyrrolidin-2-yl]methoxy]-6,8-dihydro-5H-pyrido[3,4-d]pyrimidin-4-yl]-1-prop-2-enoyl-piperazin-2-yl]acetonitrile]
12 | > 33.3 h |  |  |  | C=C(F)C(=O)N1CCN(c2nc(OC[C@@H]3CCCN3C)nc3c2CCN(c2cccc4cccc(Cl)c24)C3)C[C@@H]1CC#N [Example 478, 2-[(2S)-4-[7-(8-chloro-1-naphthyl)-2-[[(2S)-1-methylpyrrolidin-2-yl]methoxy]-6,8-dihydro-5H-pyrido[3,4-d]pyrimidin-4-yl]-1-(2-fluoroprop-2-enoyl)piperazin-2-yl]acetonitrile]
13 | > 33.3 h |  |  |  | C=C(F)C(=O)N1CCN(c2nc(OC[C@H]3CCCN3C)nc3c2CCN(c2cccc4cccc(Cl)c24)C3)C[C@@H]1CC#N [Example 557, 2-[(2S)-4-[7-(8-Chloro-1-naphthyl)-2-[[(2R)-1-methylpyrrolidin-2-yl]methoxy]-6,8-dihydro-5H-pyrido[3,4-d]pyrimidin-4-yl]-1-(2-fluoroprop-2-enoyl)piperazin-2-yl]acetonitrile]
14 |  | 6.00 to 10.00 | C (“C”>50% POC) |  | C=C(F)C(=O)N1CCN(c2nc(OC[C@@H]3CCCN3Cc3ccccc3)nc3c2CCN(c2cccc4cccc(C)c24)C3)C[C@@H]1CC#N [Example 596, 2-((S)-4-(2-(((S)-1-Benzylpyrrolidin-2-yl)methoxy)-7-(8-methylnaphthalen-1-yl)-5,6,7,8-tetrahydropyrido[3,4-d]pyrimidin-4-yl)-1-(2-fluoroacryloyl)piperazin-2-yl)acetonitrile]
15 |  | 6.00 to 10.00 | C (“C”>50% POC) |  | C=C(F)C(=O)N1CCN(c2nc(OC[C@@H]3CCCN3CCF)nc3c2CCN(c2cccc4cccc(Cl)c24)C3)C[C@@H]1CC#N [Example 598, 2-((S)-4-(7-(8-Chloronaphthalen-1-yl)-2-(((S)-1-(2-fluoroethyl)pyrrolidin-2-yl)methoxy)-5,6,7,8-tetrahydropyrido[3,4-d]pyrimidin-4-yl)-1-(2-fluoroacryloyl)piperazin-2-yl)acetonitrile]
